What was measured:
[1] = tested on: Rhipicephalus sanguineus (dog tick); assay: Activity in vitro against Rhipicephalus sanguineus (dog tick), adult tick contact test in 96-well plate; conditions: at 640 ppm, 10 minutes contact, incubated 7 days at 28° C. and 80% relative humidity
Procedure: 1. Activity In Vitro Against Rhipicephalus sanguineus (Dog Tick).
A clean adult tick population is used to seed a suitably formatted 96-well plate containing the test substances to be evaluated for antiparasitic activity. Each compound is tested by serial dilution in order to determine its minimal effective dose (MED). Ticks are left in contact with the test compound for 10 minutes and are then incubated at 28° C. and 80% relative humidity for 7 days, during which the test compound's effect is monitored. Acaricidal activity is confirmed if adult ticks are dead.

[2] = tested on: Ctenocephalides felis (cat flea); assay: Activity in vitro against Ctenocephalides felis (cat flea), artificial blood feeding system; conditions: at 100 ppm; adult fleas fed on treated blood for 24 hours
Procedure: 2. Activity In Vitro Against Ctenocephalides felis (Cat Flea). A mixed adult population of fleas is placed in a suitably formatted 96-well plate allowing fleas to access and feed on treated blood via an artificial feeding system. Each compound is tested by serial dilution in order to determine its MED. Fleas are fed on treated blood for 24 hours, after which the compound's effect is recorded. Insecticidal activity is determined on the basis of the number of dead fleas recovered from the feeding system.

For `CC(O)(c1cn(-c2c(Cl)cc(C(F)(F)F)cc2Cl)c2cccnc12)C(F)(F)F` (centres unmarked) [Compound 1.43, 2-[1-(2,6-Dichloro-4-trifluoromethyl-phenyl)-1H-pyrrolo[3,2-b]pyridin-3-yl]-1,1,1-trifluoro-propan-2-ol], the “efficacy (acaricidal activity, dead adult ticks)” value [1] was “more than 80%” and the “efficacy (insecticidal activity, dead fleas)” value [2] was “more than 80%”.

Source: US20110021543A1, “HETEROCYCLIC COMPOUNDS AND THEIR USE AS PESTICIDES” (priority 2007, published 2011)
